Experiments:
[1] = system: posterior insula Glx; assay: 1H-MRS Glx levels, posterior insula (pre and post evoked cuff pain); assay type: in vivo, human; conditions: for pain-evoked increase in posterior insula Glx at the visit: p>0.60; for posterior insula pain-related Glx/tCr level increases: 11 patients; for posterior insula evoked pain Glx levels compared to the placebo visit: p<0.10, FIG. 15
Text: As used herein, “^1H-MRS” is Magnetic Resonance Spectroscopy (1H-MRS) or Proton Magnetic Resonance Spectroscopy. Proton magnetic resonance spectroscopy is a noninvasive imaging technique that allows in vivo determination of biochemical parameters within brain tissue. Proton magnetic resonance spectroscopy data were used to collect brain neurotransmitter levels of Glu and combined glutamate+glutamine metabolites (Glx). This method provides metrics amenable to longitudinal studies such as those proposed here. High-resolution anatomical scans can isolate identical brain structures within individuals over time, thus minimizing error that otherwise would occur because of slight differences in voxel location from 1 evaluation to the next. Previous ^1H-MRS studies have utilized this approach to examine changes in the levels of CNS metabolites in test-retest studies of drug effects. This study expanded the investigation to a variety of regions throughout the brain including: • Right anterior insula • Right posterior insula (This region was acquired twice: once prior to and once following evoked cuff pain. All other voxels were acquired once.) • Perigenual/rostral anterior cingulate cortex (midline) • Dorsal/anterior cingulate cortex (midline) • Precuneus (midline) • Medial prefrontal cortex • Thalamus (optional if time permitted)
Proton magnetic resonance spectroscopy data were collected using the same scanners used for fMRI. Voxels of interest were placed in each of the aforementioned brain regions to obtain levels of Glu and Glx.
Raw data from each single-voxel spectroscopy sequence underwent manual post-processing using ^1H-MRS software (LCModel; Stephen Provencher, Oakville, Ontario, Canada). LCModel uses a linear combination of individual spectra obtained from pure molecular species to fit the experimental spectra. Glx values were calculated as an absolute concentration using the water signal for normalization or as a ratio to creatine. Correction for cerebral spinal fluid (CSF) volume, which can dilute ^1H-MRS-derived Glx values, was also performed. For this we used Voxel Based Morphometry, a toolbox that operates within SPM. Metabolite concentrations were excluded if the Cramér-Rao bounds were greater than 20%.
The analysis visit comparisons stated were analyzed using paired t-tests and/or nonparametric Wilcoxon signed-rank tests of Glx levels at each voxel independently in SPSS. The primary analyses were comparisons between posterior insula and anterior cingulate cortex Glx levels following placebo and NYX-2925 (either 20 or 200 mg) administration.

[2] = system: NMDAR; assay: NMDAR modulation (description); conditions: low concentrations of endogenous agonist (glycine or D-serine), in the presence of glutamate
[3] = system: subjects with fibromyalgia; assay: PROMIS Sleep Disturbance short form; assay type: in vivo, human; conditions: not statistically significant
Text: As used herein, the “PROMIS Sleep Disturbance” short form is Patient Reported Outcomes Measurement Information System Sleep Disturbance—Short Form. The PROMIS Sleep Disturbance short form version 1.0 8b is an 8-item instrument that assesses sleep disturbance in subjects 18 years and older. All 8 questions are based on a 5-point numerical rating scale/Likert scale ranging from 1 to 5 with different categorical responses. Lower scores represent a better quality of life. The total score was calculated by taking the sum of all 8 questions and ranged from 8 to 40. If at least 4 questions were answered, the total score was imputed if missing responses were present. The total score was multiplied by 8/(number of questions answered) and rounded off to the nearest whole number. Otherwise, the total score was set to missing.
The PROMIS Sleep Disturbance short form assessment was collected and analyzed at visits Screening, Day 1, Week 2, Week 4, Week 6, and Follow-up (Week 7). The observed total score, changes from baseline, and changes from treatment periods were summarized using descriptive statistics. Additionally, the treatment group comparisons were analyzed using the paired t-test and nonparametric Wilcoxon signed-rank test. All PROMIS Sleep Disturbance short form data collected and the calculated total score at each visit were presented in a subject listing.

[4] = system: subjects with fibromyalgia; assay: Fibromyalgia Survey Questionnaire (Widespread Pain Index, Symptom Severity Score); assay type: in vivo, human
Text: As used herein, “FSQ” is Fibromyalgia Survey Questionnaire, which is a patient-reported tool to assess the 2011 ACR Fibromyalgia criteria circumventing the requirement of physician assessment. The criteria review the widespread pain index, and somatic symptoms. The somatic symptoms of fatigue, waking unrefreshed, and cognitive symptoms were scored from 0 (no problem) to 3 (severe, pervasive, continuous, life disturbing problems). Symptoms of headaches, pain or cramps in the lower abdomen, and depression were given a score of 1, if they had occurred in the past 3 months.
As used herein, “WPI” is the Widespread Pain Index, which is a score comprised of 19 areas where subjects experienced pain within the last week with a yes or no response for each area. Each individual yes response has a numeric value of 1 and 0 is assigned to each no response. The WPI score had values ranging from 0 to 19. If any of the individual area responses were missing, the WPI score was not calculated. Here are the 19 areas that were assessed: Left Jaw, Right Jaw, Left Shoulder, Right Shoulder, Right Upper Arm, Left Upper Arm, Right Lower Arm, Left Lower Arm, Neck, Upper Back, Chest, Abdomen, Lower Back, Right Hip, Left Hip, Right Upper Leg, Left Upper Leg, Right Lower Leg, and Left Lower Leg.
As used herein, “SS” is the Symptom Severity Score, based on 3 questions each having a numeric score ranging from 0 to 3 and an additional 3 questions each having a numeric score of 0 or 1. If all 6 questions were given a numeric score, then the Symptom Severity Score ranged from 0 to 12. If any of the individual scores were missing, the Symptom Severity Score was not calculated.
As used herein, “ACR Fibromyalgia Criteria” is 2011 American College of Rheumatology Fibromyalgia Criteria, and includes FSQ, WPI, and SS. These assessments were analyzed at Day 1, Week 2, Week 4, Week 6, and Follow-up (Week 7). Both the observed Widespread Pain Index score and Symptom Severity Score, changes from baseline, and changes from treatment periods were summarized using descriptive statistics. Additionally, the treatment group comparisons were analyzed using the paired t-test and nonparametric Wilcoxon signed-rank test. A frequency distribution table was presented for yes/no responses for these categories: • Widespread Pain Index ≥7 and Symptom Severity Score >5 • Widespread Pain Index is 3 to 6 and the Symptom Severity Score is >9

[5] = Week 2 (placebo) to Week 4 (NYX-2925 20 mg), not statistically significant

CC(C)C(=O)N1CCC[C@]12CN([C@H](C(N)=O)[C@@H](C)O)C2=O [NYX-2925, (2S, 3R)-3-hydroxy-2-((R)-5-isobutyryl-1-oxo-2,5-diazaspiro[3.4]octan-2-yl)butanamide]
resting posterior insula Glx levels following evoked pain ([1]; FIG. 5: 20 mg vs placebo, 19 patients, p=0.032): significantly reduce resting posterior insula Glx levels
pain-evoked increase in posterior insula Glx at the visit ([1]; NYX-2925 20 mg visit): not significant
posterior insula pain-related Glx/tCr level increases ([1]; NYX-2925 20 mg vs placebo, FIG. 3A, p<0.05): reduction in pain related Glx/tCr level increases
posterior insula evoked pain Glx levels compared to the placebo visit ([1]; NYX-2925 20 mg): trend for NYX-2925 20 mg and 200 mg to reduce evoked pain Glx levels
posterior insula Glx levels post-pain (ratios to creatine only) ([1]; NYX-2925 200 mg compared to placebo, p<0.05): significant decrease in Glx levels
pain-evoked increase in posterior insula Glx at the visit ([1]; NYX-2925 200 mg visit): not significant
posterior insula pain-related Glx/tCr level increases ([1]; NYX-2925 200 mg vs placebo, FIG. 3B, p<0.05): reduction in pain related Glx/tCr level increases
posterior insula evoked pain Glx levels compared to the placebo visit ([1]; NYX-2925 200 mg): trend for NYX-2925 20 mg and 200 mg to reduce evoked pain Glx levels
activity at the NMDAR [2]: partially activates the NMDAR
PROMIS Sleep Disturbance short form score, mean change ([3]; Week 2 (placebo) to Week 4 (NYX-2925 20 mg)): −0.9
PROMIS Sleep Disturbance short form score, mean change ([3]; Week 2 (placebo) to Week 6 (NYX-2925 200 mg)): −1.6
Symptom Severity score, mean change [4, 5]: −0.3
Widespread Pain Index, mean change [4, 5]: 0.0
Widespread Pain Index, mean change ([4]; Week 2 (placebo) to Week 6 (NYX-2925 200 mg), not statistically significant): −1.3
Symptom Severity score, mean change ([4]; Week 2 (placebo) to Week 6 (NYX-2925 200 mg), statistically significant): −0.9

From patent publication US20210308101A1, “METHODS OF TREATING FIBROMYALGIA” (Aptinyx Inc., priority 2019, published 2021)
